The numbers were not newly measured in patent US20190091218A1 (priority 2016, published 2019), which cites them from elsewhere.

Each structure is given as a SMILES string. Like-named read-outs stand apart in the source and are kept apart here.

Data set [1] addresses H1 receptor (Homo sapiens, UniProt P35367). Conditions: acidic pH.
In data set [2] the test system is histamine induced wheal and flare.
Data set [3] relates to human rhinovirus (HRV).
Assay in data set [4]: not given
The source holds these as a separate data set.

The conditions of data set [5]: standard 10 mg oral dose.

H1 receptor, sequence (P35367 whole entry): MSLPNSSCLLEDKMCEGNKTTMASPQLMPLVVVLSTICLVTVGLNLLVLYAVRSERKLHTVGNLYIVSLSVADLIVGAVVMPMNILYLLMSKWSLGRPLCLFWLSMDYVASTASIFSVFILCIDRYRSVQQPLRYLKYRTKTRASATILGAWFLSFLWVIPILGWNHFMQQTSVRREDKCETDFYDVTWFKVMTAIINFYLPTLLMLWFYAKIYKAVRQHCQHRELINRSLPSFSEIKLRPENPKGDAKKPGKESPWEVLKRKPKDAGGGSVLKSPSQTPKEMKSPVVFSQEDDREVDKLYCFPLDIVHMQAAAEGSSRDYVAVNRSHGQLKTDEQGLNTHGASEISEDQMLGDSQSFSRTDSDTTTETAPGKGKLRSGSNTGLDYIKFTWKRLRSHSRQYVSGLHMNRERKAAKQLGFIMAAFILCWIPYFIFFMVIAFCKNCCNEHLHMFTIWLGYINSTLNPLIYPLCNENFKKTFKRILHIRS

For the compound `O=C(O)COCCN1CCN([C@H](c2ccccc2)c2ccc(Cl)cc2)CC1` [levocetirizine], the “receptor affinity over first generation mepyramine” value in data set [1] is on record as 5 ×. Also, the “potency among modern generation antihistamines” value in data set [2] (histamine induced wheal and flare data) is “most potent of the five modern generation antihistamines”. For the same compound, the effectiveness versus fexofenadine entry in data set [2] (levocetirizine 5 mg per day vs fexofenadine 180 mg per day) is on record as “more effective than fexofenadine”. Where the note is “studies in humans”, the “dose that can be safely administered” value is on record as “up to 30 mg/day”. In addition, the “levels of HRV-induced increases in ICAM-1” value in data set [3] (added before, after, or at the time of the HRV infection) is reported as “reduced”. In data set [3] (airway epithelial cells from nose and lung), the “HRV-induced ICAM-1, cytokine expression, and viral replication” value is “inhibit”. Further, in data set [4] (in vivo), the “time to steady state level” value was 40 h. Besides, the peak concentration in data set [4] (repeated 5 mg once daily oral dose) is 308 ng/mL; in data set [4] (single 5 mg oral dose), 270 ng/mL.
On to `CC(C)(O)c1ccccc1CC[C@@H](SCC1(CC(=O)O)CC1)c1cccc(/C=C/c2ccc3ccc(Cl)cc3n2)c1` [montelukast], for which the “dose administered without clinically relevant side effects” value is, setting by setting: (adult patients, 22 weeks) “up to 200 mg/day”; (short-term studies, approximately one week) “up to 900 mg/day”. In data set [5], the “mean AUC” value was 2689 ng/h/mL.
